In patent US20040132731A1, “Novel combination” (priority 2002, published 2004):

System: spontaneously hypertensive rat (SHR)
Test: Animal study: change in mean arterial pressure in anaesthetised spontaneously hypertensive rats
Format: in vivo
Conditions: anaesthetised male SHR; for Change in mean arterial pressure from vehicle: n=6/group, infusion at 0.5 mL/h, candesartan 0.02 μg/kg/min, PDE5 inhibitor 15.61 μg/kg/min, combination 15.61 μg/kg/min+0.02 μg/kg/min; for fall in MAP: text restatement of the table, combination vs sum of the two individual effects p=0.058
Method: The spontaneously hypertensive rat (SHR) is a widely used model of human hypertension. Anaesthetised male SHRs (250-450 g) were surgically prepared for the measurement of systolic, diastolic and mean arterial pressure. Cannulae were inserted into the jugular veins and carotid artery. The trachea was also cannulated to facilitate respiration. Following a 60 min post-surgical stabilisation period, arterial blood pressure and heart rate were recorded via a pressure transducer and PoNeMah data acquisition system.
Solutions of candesartan (0.02, μg/kg/min), PDE5 inhibitor (15.61 μg/kg/min) and a combination of PDE5 inhibitor and candesartan (15.61 μg/kg/min+0.02, μg/kg/min) were infused as appropriate at a rate of 0.5 mL/h. Control animals received compound vehicle (5% DMSO, 10% PEG200, 85% water for injection (v/v)).
Baseline haemodynamic parameters were recorded. Animals (n=6/group) were randomised to receive a primed infusion of either vehicle or PDE5 Inhibitor for a period of 60 min. At this point, these groups were further randomised to receive either (i) vehicle or PDE5 inhibitor alone, (ii) candesartan alone or (iii) a combination of candesartan and PDE5 inhibitor. Changes in mean arterial pressure were monitored during the study period.

SMILES	Change in mean arterial pressure from vehicle	fall in MAP
CCc1c2nc(-c3cc(S(=O)(=O)N4CCN(CC)CC4)cnc3OCCOC)[nH]c(=O)c2nn1Cc1ccccn1 [PDE5 inhibitor, 3-ethyl-5-[5-(4-ethylpiperazin-1-ylsulphonyl)-2-(2-methoxyethoxy)pyridin-3-yl]-2 (pyridin-2-yl)methyl-2,6-dihydro-7H-pyrazolo[4,3-d]pyrimidin-7-one]	−7.4 mmHg	7.4 mmHg
CCOc1nc2cccc(C(=O)O)c2n1Cc1ccc(-c2ccccc2-c2nnn[nH]2)cc1 [candesartan]	−3.2 mmHg	3.2 mmHg
